Measurements: US9708306B2, “Benzimidazole derivatives and preparation process and pharmaceutical uses thereof” (WUHAN LL SCIENCE AND TECHNOLOGY DEVELOPMENT CO., LTD, priority 2015, dated 2017)
Read-outs that look alike come from different tables or passages of the source.

Legend:
[1] = system: renovascular hypertensive rats; assay: Effect on reducing blood pressure of renovascular hypertensive rats by single oral administration of potassium salt of QR01019; type: in vivo, Wistar rats; conditions: RHR; for Maximum blood pressure reduction / Variations on heart rate: 1.0 mg/kg, single oral administration
Experimental: Wistar rats (provided by Hubei Province Disease Prevention Control Center, Wuhan, Hubei), male, weighted of 180 to 200 g, are randomly classified into 5 groups, including negative control group (0.5% CMC-Na), positive control group (1.0 mg/kg of potassium salt of Azilsartan medoxomil as the positive drug) and three groups with the test compound, QR01019 potassium salt (1.0 mg/kg), 6-8 animals per group. The unilateral renal artery of the rates were ligated to form two-kidney, one-clip renovascular hypertensive rat (RHR) models. After the surgery, the blood pressure was measured for weekly, and the measurement continued for 4 weeks. The rats whose blood pressures were steadily elevated by 4 kPa were successfully modeled rats. Before measuring blood pressure, the rat tails were heated by using a cyclic water bath tail sleeve at 39° C. to expand tail vessel, and thereafter, a tail sleeve method (BP2010A noninvasive blood pressure meter, Beijing Jiandeer Technology Limited Corporation, No. 1, Shangdi 10th Street, Haidian District, Beijing) was used to measure the blood pressures and heart rates of the rats before the administrations and at 1, 3, 5, 7, and 10 hours after oral administration, and each of the time points was measured three times to take the mean value. Maximum Blood pressure reduction (%)=maximum blood pressure reduction value after the administration/blood pressure value before the administration*100%.

normal rats = assay: Effect on blood pressure of normal rats by single oral administration; type: in vivo, Wistar rats; conditions: Rattus norvegicus, po, single, normal rats; for inhibition in vivo at 0.5 mg/kg / inhibition in vivo at 1 mg/kg / inhibition in vivo at 2 mg/kg: 8 h, read-out: blood pressure reduction at 8 h after the administration; for inhibition in vivo at 0.5 mg/kg / change in vivo at 0.5 mg/kg: 0.5 mg/kg p.o.; for inhibition in vivo at 1 mg/kg / change in vivo at 1 mg/kg: 1.0 mg/kg p.o.; for inhibition in vivo at 2 mg/kg / change in vivo at 2 mg/kg: 2.0 mg/kg p.o.; for change in vivo at 0.5 mg/kg / change in vivo at 1 mg/kg / change in vivo at 2 mg/kg: read-out: variations on heart rate
[2] = system: spontaneously hypertensive rats (SHR); assay: Effect on reducing blood pressure of spontaneously hypertensive rats (SHR) by multiple oral administrations; type: in vivo; conditions: SHR; for inhibition in vivo at 0.5 mg/kg / inhibition in vivo at 1 mg/kg / inhibition in vivo at 2 mg/kg: Rattus norvegicus, 1 hour after the administration; for inhibition in vivo at 0.5 mg/kg: 0.5 mg/kg oral once per day; for inhibition in vivo at 1 mg/kg: 1.0 mg/kg oral once per day; for inhibition in vivo at 2 mg/kg: 2.0 mg/kg oral once per day
[3] = system: renovascular hypertensive rats; assay: Effect on reducing blood pressure of renovascular hypertensive rats by single oral administration; type: in vivo, Wistar rats; conditions: for change in vivo at 0.5 mg/kg / inhibition in vivo at 0.5 mg/kg / change in vivo at 1 mg/kg / inhibition in vivo at 1 mg/kg / change in vivo at 2 mg/kg / inhibition in vivo at 2 mg/kg: Rattus norvegicus, single oral administration; for change in vivo at 0.5 mg/kg / change in vivo at 1 mg/kg / change in vivo at 2 mg/kg: RHR, read-out: Variations on heart rate; for inhibition in vivo at 0.5 mg/kg / inhibition in vivo at 1 mg/kg / inhibition in vivo at 2 mg/kg: two-kidney one-clip RHR, measured 1-10 h, read-out: Maximum blood pressure reduction
[4] = read-out: Maximum blood pressure reduction, 1st-day administration
[5] = read-out: Maximum blood pressure reduction, 7th-day administration
[6] = read-out: Maximum blood pressure reduction, 14th-day administration

Q: With `CCOc1nc2cccc(C(=O)OC(C)OC(=O)OCc3nc(C)c(C)nc3C)c2n1Cc1ccc(-c2ccccc2-c2noc(=O)[nH]2)cc1.[K]` (centres unmarked) [QR01019 potassium salt] as the molecule, how does the “Maximum blood pressure reduction” value [1] read?
A: 38 ± 4.3%

Q: What about the “Variations on heart rate” value [1] of the same molecule?
A: −18 ± 5%

Q: And the “regulation on the heart rate compared with positive control group” value ([1]; result in words)?
A: obviously superior to the positive control group

Q: What about the “blood pressure reduction effect compared with control group” value ([1]; same dosage, result in words) of the same molecule?
A: significant blood pressure reduction effect

Q: Which “Maximum blood pressure reduction” value [1] does the source give for `CCOc1nc2cccc(C(=O)OCc3oc(=O)oc3C)c2n1Cc1ccc(-c2ccccc2-c2noc(=O)[n-]2)cc1.[K+]` [Positive control, potassium salt of Azilsartan medoxomil, reference compound] here?
A: 34 ± 3.6%

Q: What about the “Variations on heart rate” value [1] of the same molecule?
A: −14 ± 7%

Q: Which inhibition in vivo at 0.5 mg/kg (normal rats) does the source give for `CCOc1nc2cccc(C(=O)OC(C)OC(=O)OCc3no[n+]([O-])c3C)c2n1Cc1ccc(-c2ccccc2-c2noc(=O)[nH]2)cc1` (centres unmarked) [QR01021] here?
A: 2.7 ± 3.2%

Q: And the inhibition in vivo at 1 mg/kg (normal rats)?
A: 3.9 ± 3.8%

Q: What about the inhibition in vivo at 2 mg/kg (normal rats) of the same molecule?
A: 2.8 ± 3.1%

Q: What about the change in vivo at 0.5 mg/kg (normal rats) of the same molecule?
A: -4 ± 3%

Q: What about the change in vivo at 1 mg/kg (normal rats) of the same molecule?
A: -2 ± 5%

Q: And the change in vivo at 2 mg/kg (normal rats)?
A: -1 ± 3%

Q: What about the inhibition in vivo at 0.5 mg/kg [2, 4] of the same molecule?
A: 23 ± 6.4%

Q: What about the inhibition in vivo at 0.5 mg/kg [2, 5] of the same molecule?
A: 24 ± 4.1%

Q: And the inhibition in vivo at 0.5 mg/kg [2, 6]?
A: 25 ± 5%

Q: What about the inhibition in vivo at 1 mg/kg [2, 4] of the same molecule?
A: 42 ± 7.7%

Q: What about the inhibition in vivo at 1 mg/kg [2, 5] of the same molecule?
A: 40 ± 3.8%

Q: And the inhibition in vivo at 1 mg/kg [2, 6]?
A: 44 ± 5.1%

Q: And the inhibition in vivo at 2 mg/kg [2, 4]?
A: 44 ± 6%

Q: What about the inhibition in vivo at 2 mg/kg [2, 5] of the same molecule?
A: 44 ± 8.7%

Q: What about the inhibition in vivo at 2 mg/kg [2, 6] of the same molecule?
A: 46 ± 5.9%

Q: What about the “blood pressure reduction effect compared with Azilsartan medoxomil” value ([2]; result in words) of the same molecule?
A: obviously superior to that of the Azilsartan medoxomil positive drug

Q: What about the change in vivo at 0.5 mg/kg [3] of the same molecule?
A: -6 ± 5%

Q: And the inhibition in vivo at 0.5 mg/kg [3]?
A: 15 ± 2.1%

Q: What about the change in vivo at 1 mg/kg [3] of the same molecule?
A: -3 ± 6%

Q: What about the inhibition in vivo at 1 mg/kg [3] of the same molecule?
A: 28 ± 4.5%

Q: And the change in vivo at 2 mg/kg [3]?
A: -12 ± 5%

Q: And the inhibition in vivo at 2 mg/kg [3]?
A: 32 ± 5.2%

Q: And the “blood pressure reduction effect compared with Azilsartan medoxomil” value ([3]; renal artery-ligated rat, result in words)?
A: close to that of Azilsartan medoxomil

Q: Which results are given for `CCOc1nc2cccc(C(=O)OCc3oc(=S)oc3C)c2n1Cc1ccc(-c2ccccc2-c2noc(=O)[nH]2)cc1` [QR01013]?
A: inhibition in vivo at 0.5 mg/kg (normal rats): 4.2 ± 2.7%; inhibition in vivo at 1 mg/kg (normal rats): 6.2 ± 2.3%; inhibition in vivo at 2 mg/kg (normal rats): 3.4 ± 4.2%; change in vivo at 0.5 mg/kg (normal rats): -3 ± 4%; change in vivo at 1 mg/kg (normal rats): 5%; change in vivo at 2 mg/kg (normal rats): -5 ± 4%; inhibition in vivo at 0.5 mg/kg [2, 4]: 14 ± 5.9%; inhibition in vivo at 0.5 mg/kg [2, 5]: 15 ± 7.1%; inhibition in vivo at 0.5 mg/kg [2, 6]: 17 ± 5.8%; inhibition in vivo at 1 mg/kg [2, 4]: 24 ± 5.8%; inhibition in vivo at 1 mg/kg [2, 5]: 28 ± 6%; inhibition in vivo at 1 mg/kg [2, 6]: 27 ± 6.4%; inhibition in vivo at 2 mg/kg [2, 4]: 34 ± 5.9%; inhibition in vivo at 2 mg/kg [2, 5]: 38 ± 5.7%; inhibition in vivo at 2 mg/kg [2, 6]: 39 ± 7.1%; change in vivo at 0.5 mg/kg [3]: -6 ± 4%; inhibition in vivo at 0.5 mg/kg [3]: 16 ± 3%; change in vivo at 1 mg/kg [3]: -8 ± 3%; inhibition in vivo at 1 mg/kg [3]: 25 ± 4.5%; change in vivo at 2 mg/kg [3]: -10 ± 5%; inhibition in vivo at 2 mg/kg [3]: 34 ± 7.1%
